Measurements as given in PubChem BioAssay AID248 (DTP/NCI, 2004).
“And” between values parts separate entries of the source, which are not always exact repeats. Equal entries are not always repeated. Inconclusive results and toxic doses are left out.

Test system: L1210 leukemia ip in BDF1 mice, survival T/C
Assay: NCI In Vivo Anticancer Drug Screen. Data for tumor model L1210 Leukemia (intraperitoneal) in B6D2F1 (BDF1) mice
Details: endpoint: mean survival time, higher = longer survival
Summary of the method: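 Each compound was tested against a transplantable tumor grown in mice. The endpoint was survival, with treated animals benchmarked against vehicle controls as a simple ratio.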

[1] = dose: 100.0 mg/kg/injection, schedule: Q04DX003 (ip), vehicle: Klucel (hydroxypropylcellulose) (HPC)
[2] = dose: 200.0 mg/kg/injection, schedule: Q04DX003 (ip), vehicle: Klucel (hydroxypropylcellulose) (HPC)
[3] = dose: 400.0 mg/kg/injection, schedule: Q04DX003 (ip), vehicle: Klucel (hydroxypropylcellulose) (HPC)
[4] = dose: 100.0 mg/kg/injection, schedule: Q01DX001 (ip), vehicle: Klucel (hydroxypropylcellulose) (HPC)
[5] = dose: 200.0 mg/kg/injection, schedule: Q01DX001 (ip), vehicle: Klucel (hydroxypropylcellulose) (HPC)
[6] = dose: 75.0 mg/kg/injection, schedule: Q01DX001 (ip), vehicle: saline
[7] = dose: 150.0 mg/kg/injection, schedule: Q01DX001 (ip), vehicle: saline
[8] = dose: 300.0 mg/kg/injection, schedule: Q01DX001 (ip), vehicle: saline
[9] = dose: 25.0 mg/kg/injection, schedule: Q04DX003 (ip), vehicle: saline
[10] = dose: 50.0 mg/kg/injection, schedule: Q04DX003 (ip), vehicle: saline
[11] = dose: 100.0 mg/kg/injection, schedule: Q04DX003 (ip), vehicle: saline
[12] = dose: 200.0 mg/kg/injection, schedule: Q04DX003 (ip), vehicle: saline
[13] = dose: 400.0 mg/kg/injection, schedule: Q04DX003 (ip), vehicle: saline
[14] = dose: 100.0 mg/kg/injection, schedule: Q01DX009 (ip), vehicle: saline with Tween-80
[15] = dose: 100.0 mg/kg/injection, schedule: Q04DX003 (ip), vehicle: saline with Tween-80
[16] = dose: 200.0 mg/kg/injection, schedule: Q01DX009 (ip), vehicle: saline with Tween-80
[17] = dose: 200.0 mg/kg/injection, schedule: Q04DX003 (ip), vehicle: saline with Tween-80
[18] = dose: 400.0 mg/kg/injection, schedule: Q04DX003 (ip), vehicle: saline with Tween-80

SMILES: Nc1nc(=O)c2[nH]cnc2n1O
- T/C (dose: 12.5 mg/kg/injection, schedule: Q01DX009 (ip), vehicle: saline with Tween-80): 96 % of control
- T/C (dose: 16.5 mg/kg/injection, schedule: Q01DX009 (ip), vehicle: saline): 112 % of control
- T/C (dose: 25.0 mg/kg/injection, schedule: Q01DX009 (ip), vehicle: saline with Tween-80): 215 % of control
- T/C (dose: 25.0 mg/kg/injection, schedule: Q01DX009 (ip), vehicle: saline): 100 % of control
- T/C (dose: 50.0 mg/kg/injection, schedule: Q01DX009 (ip), vehicle: saline with Tween-80): 88 % of control
- T/C (dose: 55.0 mg/kg/injection, schedule: Q01DX009 (ip), vehicle: saline): 110 % of control

SMILES: O=NN(CCCl)C(=O)NC1CCSCC1
- T/C (dose: 0.5 mg/kg/injection, schedule: Q01DX001 (ip), vehicle: carboxymethylcellulose (CMC)): 104 % of control
- T/C (dose: 1.0 mg/kg/injection, schedule: Q01DX001 (ip), vehicle: carboxymethylcellulose (CMC)): 104 % of control
- T/C (dose: 4.0 mg/kg/injection, schedule: Q01DX001 (ip), vehicle: carboxymethylcellulose (CMC)): 179 % of control
- T/C (dose: 5.0 mg/kg/injection, schedule: Q01DX001 (ip), vehicle: carboxymethylcellulose (CMC)): 226 % of control
- T/C (dose: 6.0 mg/kg/injection, schedule: Q01DX001 (ip), vehicle: carboxymethylcellulose (CMC)): 203 % of control and 277 % of control
- T/C (dose: 8.0 mg/kg/injection, schedule: Q01DX001 (ip), vehicle: carboxymethylcellulose (CMC)): 290 % of control and 319 % of control and 322 % of control
- T/C (dose: 9.0 mg/kg/injection, schedule: Q01DX001 (ip), vehicle: carboxymethylcellulose (CMC)): 312 % of control
- T/C (dose: 12.0 mg/kg/injection, schedule: Q01DX001 (ip), vehicle: carboxymethylcellulose (CMC)): 319 % of control and 322 % of control
- T/C (dose: 14.0 mg/kg/injection, schedule: Q01DX001 (ip), vehicle: carboxymethylcellulose (CMC)): 312 % of control
- T/C (dose: 16.0 mg/kg/injection, schedule: Q01DX001 (ip), vehicle: carboxymethylcellulose (CMC)): 234 % of control
- T/C (dose: 18.0 mg/kg/injection, schedule: Q01DX001 (ip), vehicle: carboxymethylcellulose (CMC)): 158 % of control
- T/C (dose: 21.0 mg/kg/injection, schedule: Q01DX001 (ip), vehicle: carboxymethylcellulose (CMC)): 122 % of control
- T/C (dose: 24.0 mg/kg/injection, schedule: Q01DX001 (ip), vehicle: carboxymethylcellulose (CMC)): 90 % of control

SMILES: COc1ccc2c(c1)CCC1(C)CC(C)C(=O)C=C21 (stereo not drawn)
- T/C [1]: 92 % of control
- T/C [2]: 91 % of control
- T/C [3]: 92 % of control

SMILES: COc1ccc(-n2c(=O)c(N=Nc3ccccc3Cl)c(O)n(-c3ccccc3C)c2=S)cc1
- T/C [4]: 97 % of control
- T/C [5]: 93 % of control
- T/C (dose: 400.0 mg/kg/injection, schedule: Q01DX001 (ip), vehicle: Klucel (hydroxypropylcellulose) (HPC)): 104 % of control

SMILES: CC1(CO)COC2(CCCCC2)N1 (stereo not drawn)
- T/C [6]: 102 % of control
- T/C [7]: 92 % of control
- T/C [8]: 96 % of control

SMILES: Cc1cc(NCC2CCNCC2)nc(/N=C(\N)Nc2ccc(Cl)c(Cl)c2)n1
- T/C (dose: 12.5 mg/kg/injection, schedule: Q04DX003 (ip), vehicle: saline): 102 % of control
- T/C [9]: 113 % of control
- T/C [10]: 102 % of control
- T/C [11]: 106 % of control

SMILES: COC(=O)C1(C)CCC(c2ccc(C)cc2)=C(CC(=O)O)C1 (stereo not drawn)
- T/C (dose: 100.0 mg/kg/injection, schedule: Q01DX009 (ip), vehicle: saline): 115 % of control
- T/C [11]: 100 % of control
- T/C (dose: 200.0 mg/kg/injection, schedule: Q01DX009 (ip), vehicle: saline): 97 % of control
- T/C [12]: 96 % of control
- T/C (dose: 400.0 mg/kg/injection, schedule: Q01DX009 (ip), vehicle: saline): 95 % of control
- T/C [13]: 115 % of control

SMILES: CCC(=O)C(CC)c1ccccc1 (stereo not drawn)
- T/C [14]: 95 % of control
- T/C [15]: 102 % of control
- T/C [16]: 94 % of control
- T/C [17]: 97 % of control
- T/C (dose: 400.0 mg/kg/injection, schedule: Q01DX009 (ip), vehicle: saline with Tween-80): 100 % of control
- T/C [18]: 97 % of control

SMILES: O=CCC1C=CCC1 (stereo not drawn)
- T/C (dose: 75.0 mg/kg/injection, schedule: Q01DX001 (ip), vehicle: carboxymethylcellulose (CMC)): 101 % of control
- T/C (dose: 150.0 mg/kg/injection, schedule: Q01DX001 (ip), vehicle: carboxymethylcellulose (CMC)): 103 % of control

SMILES: O=C(Cc1ccc(Cl)cc1)NC(NC(=O)Cc1ccc(Cl)cc1)C(Cl)(Cl)Cl
- T/C (dose: 100.0 mg/kg/injection, schedule: Q01DX009 (ip), vehicle: Klucel (hydroxypropylcellulose) (HPC)): 102 % of control
- T/C (dose: 200.0 mg/kg/injection, schedule: Q01DX009 (ip), vehicle: Klucel (hydroxypropylcellulose) (HPC)): 96 % of control
- T/C (dose: 400.0 mg/kg/injection, schedule: Q01DX009 (ip), vehicle: Klucel (hydroxypropylcellulose) (HPC)): 88 % of control

SMILES: CCC[CH2][Sn]1([CH2]CCC)[S]CCOB(OCC[S][Sn]([CH2]CCC)([CH2]CCC)[S]CCOB2OCC[S][Sn]([CH2]CCC)([CH2]CCC)[S]CCO2)OCC[S]1
- T/C (dose: 6.25 mg/kg/injection, schedule: Q01DX001 (ip), vehicle: Klucel (hydroxypropylcellulose) (HPC)): 100 % of control
- T/C (dose: 12.5 mg/kg/injection, schedule: Q01DX001 (ip), vehicle: Klucel (hydroxypropylcellulose) (HPC)): 89 % of control
- T/C (dose: 25.0 mg/kg/injection, schedule: Q01DX001 (ip), vehicle: Klucel (hydroxypropylcellulose) (HPC)): 112 % of control

SMILES: O=[N+]([O-])c1ccc(-c2ccc(Br)cc2)cc1
- T/C [14]: 100 % of control
- T/C [15]: 101 % of control
- T/C [16]: 86 % of control
- T/C [17]: 94 % of control
- T/C [18]: 103 % of control

SMILES: CC(=O)Nc1ncccn1
- T/C (dose: 100.0 mg/kg/injection, schedule: Q04DX002 (ip), vehicle: saline with Tween-80): 98 % of control
- T/C (dose: 200.0 mg/kg/injection, schedule: Q04DX002 (ip), vehicle: saline with Tween-80): 98 % of control
- T/C (dose: 400.0 mg/kg/injection, schedule: Q04DX002 (ip), vehicle: saline with Tween-80): 98 % of control

SMILES: N#CC1=C(N)CCCC1
- T/C [15]: 104 % of control

SMILES: Cc1cccc(C)c1NC(=O)NCCCl
- T/C (dose: 50.0 mg/kg/injection, schedule: Q01DX001 (ip), vehicle: Klucel (hydroxypropylcellulose) (HPC)): 97 % of control
- T/C [4]: 108 % of control
- T/C [11]: 105 % of control
- T/C [5]: 101 % of control
- T/C [12]: 97 % of control
- T/C [13]: 100 % of control

SMILES: Cc1cccc(N2C(=O)C3C(C2=O)C2(Cl)C(Cl)=C(Cl)C3(Cl)C2(Cl)Cl)c1C (stereo not drawn)
- T/C (dose: 3.0 mg/kg/injection, schedule: Q01DX009 (ip), vehicle: Klucel (hydroxypropylcellulose) (HPC)): 96 % of control
- T/C (dose: 6.0 mg/kg/injection, schedule: Q01DX009 (ip), vehicle: Klucel (hydroxypropylcellulose) (HPC)): 102 % of control
- T/C (dose: 12.5 mg/kg/injection, schedule: Q01DX009 (ip), vehicle: Klucel (hydroxypropylcellulose) (HPC)): 111 % of control
- T/C (dose: 25.0 mg/kg/injection, schedule: Q01DX009 (ip), vehicle: Klucel (hydroxypropylcellulose) (HPC)): 107 % of control
- T/C (dose: 50.0 mg/kg/injection, schedule: Q01DX009 (ip), vehicle: Klucel (hydroxypropylcellulose) (HPC)): 103 % of control

SMILES: C=CCCCCCCCCC(=O)NC(C)C(C)(C)C (stereo not drawn)
- T/C [15]: 87 % of control
- T/C [17]: 98 % of control

SMILES: NC(=S)N/N=C/c1ccco1
- T/C [9]: 105 % of control
- T/C [10]: 109 % of control
- T/C (dose: 100.0 mg/kg/injection, schedule: Q01DX001 (ip), vehicle: saline): 101 % of control
- T/C [1]: 93 % of control
- T/C [11]: 94 % of control and 100 % of control
- T/C (dose: 200.0 mg/kg/injection, schedule: Q01DX001 (ip), vehicle: saline): 104 % of control
- T/C [2]: 96 % of control
- T/C [3]: 103 % of control

SMILES: c1ccc2c(c1)ccc1cc3c4ccccc4c4ccccc4c3cc12
- T/C (dose: 50.0 mg/kg/injection, schedule: Q01DX001 (ip), vehicle: carboxymethylcellulose (CMC)): 97 % of control
- T/C (dose: 200.0 mg/kg/injection, schedule: Q01DX001 (ip), vehicle: carboxymethylcellulose (CMC)): 90 % of control
- T/C (dose: 400.0 mg/kg/injection, schedule: Q01DX001 (ip), vehicle: carboxymethylcellulose (CMC)): 106 % of control

SMILES: CC1(C)NC(=O)N(CCOS(C)(=O)=O)C1=O
- T/C [9]: 101 % of control
- T/C [10]: 98 % of control
- T/C [11]: 104 % of control
- T/C [12]: 104 % of control
- T/C [13]: 93 % of control

SMILES: COc1cccc(C2Nc3cc(Cl)ccc3S2)c1O (stereo not drawn)
- T/C [6]: 105 % of control
- T/C [7]: 109 % of control
- T/C [8]: 105 % of control
